Laboratory results from patent US5527811A, “Isoquinolinyl compounds which are useful in treating cerebral vascular disorders” (Takeda Chemical Industries, Ltd., priority 1993, dated 1996).
Counter-ions that a name gives are not always drawn. Like-named read-outs stand apart in the source and are kept apart here.

Tests used:
[1] = test system: transient cerebral ischemia in mongolian gerbils; assay: Protective effect of cerebralischemia: survival ratio after bilateral common carotid occlusion and reperfusion in gerbils; assay type: in vivo, mongolian gerbil; settings: Meriones unguiculatus, ip; for responders at 5 mg/kg: read-out: Survival ratio
Experimental: Test Example 1 Protective effect of cerebralischemia
Male mongolian gerbils (Seiwa/8-10 wks) (n=8-10) were used. Bilateral common carotid arteries were occluded after the incision of the center of the neck under ether anesthesia. Global cerebral ischemia was induced by the occlusion of bilateral common carotid arteries (15 minutes), and after that these arteries were reperfused. Test sample was administered intraperiatonelly 30 minutes before occlusion and 90 minutes after reperfusion. In the control group, vehicle (distilled water, saline or 5% gum arabic) was administered in the same fashion. Survival ratio was estimated at 8 hr after reperfusion (Table 2).

[2] = test system: brain edema in male wistar rats; assay: Anti-brain edema effect (middle cerebral arterial occlusion and reperfusion model); assay type: in vivo, rat (wistar); settings: 10 mg/kg(ip) × 7, rat, 3rd day after reperfusion, * p < 0.05
Description: Test Example 2 Anti-brain edema effect (middle cerebral arterial occlusion and reperfusion model)
Male wistar rats (Jcl:9wks) were anesthetized with inhalation of halothane (2-bromo-2-chloro-1,1,1-trifluoroethane). After the incision of neck, bilateral common carotid arteries were […] an embolized needle (diameter 0.3 mm, length 26 mm nylon thread) was inserted into the left internal carotid artery through external carotid artery and, simultaneously, the bilateral common carotid arteries were occluded by the Sugita's aneurysm clips. The embolized needle and the clips were removed out 30 minutes after occlusion. Test sample was administered immediately and 5 hr after reperfusion on the operated day, twice a day on the 1st and 2nd day, and 1 hr before removing the brain on the 3rd day (total 7 times), intraperiatonelly. In the control group, vehicle (distilled water, saline or 5% gum arabic) was administered in the same fasion. Brain edema on the 3rd day after reperfusion was estimated from the content of water, potassium and sodium in cerebral cortex and striatum. Water content was calculated from the ratio of dried brain weight and wet brain weight [(1-dried weight/wet weight)×100%]. The contents of pottasium and sodium were measured using the solution extracted from dried brain tissue with 14% nitric acid by the method of the framephotometer (Table 3).

[3] = 5 mg/kg, 30 min before occlusion and 90 min after reperfusion, estimated 8 hr after reperfusion, control 0
[4] = 30 min before occlusion and 90 min after reperfusion, estimated 8 hr after reperfusion, control 0

Structure (SMILES)	responders at 5 mg/kg [1, 3]	other results
CN(C)c1cccc(NC(=O)NCc2c(-c3ccccc3)c3cc(Cl)ccc3c(=O)n2C)c1 [14 (HCl), N-[(6-Chloro-1,2-dihydro-2-methyl-1-oxo-4-phenylisoquinolin-3-yl)methyl]-N'-(3-N,N-dimethylaminophenyl)urea hydrochloride]	63%	–
CN(C)Cc1cccc(NC(=O)NCc2c(-c3ccccc3)c3cc(Cl)ccc3c(=O)n2C)c1 [15 (HCl), N-[(6-Chloro-1,2-dihydro-2-methyl-1-oxo-4-phenylisoquinolin-3-yl)methyl]-N'-(3-N,N-dimethylaminomethylphenyl)urea hydrochloride]	88%	responders at 0.3 mg/kg [1, 4]: 80%; H2O (water content of brain) ([2]; control 81.27 (Example 1), 80.94 (Example 15(HCl))): 80.24 ± 0.23%; Na (sodium content of brain) ([2]; control 405 (Example 1), 371 (Example 15(HCl))): 325 ± 17 mEq/kg; K (potassium content of brain) ([2]; control 430 (Example 1), 440 (Example 15(HCl))): 466 ± 9 mEq/kg
Cn1c(CNC(=O)Nc2cccc(C(=O)O)c2)c(-c2ccccc2)c2cc(Cl)ccc2c1=O [17 (Na), N-(3-Carboxyphenyl)-N'-[(6-chloro-1,2-dihydro-2-methyl-1-oxo-4-phenylisoquinolin-3-yl)methyl]urea sodium salt]	–	responders at 5 mg/kg ([1]; 8 h): 67%
CC(C)Oc1cccc(N(CC(=O)O)C(=O)NCc2c(-c3ccccc3)c3cc(Cl)ccc3c(=O)n2C)c1 [22 (Ma), N-Carboxymethyl-N'-[(6-chloro-1,2-dihydro-2-methyl-1-oxo-4-phenylisoquinolin-3-yl)methyl]-N-(3isopropoxyphenyl)urea sodium salt]	–	responders at 5 mg/kg ([1]; 8 h): 63%
Cn1c(CNC(=O)Cc2cccc(C(=O)O)c2)c(-c2ccccc2)c2cc(Cl)ccc2c1=O [28 (Na), N-(6-Chloro-1,2-dihydro-2-methyl-1-oxo-4-phenylisoquinolin-3-yl)methyl-α-(3-carboxyphenyl)acetamide sodium salt]	–	responders at 5 mg/kg ([1]; 8 h): 75%
CCN(CC)Cc1cccc(NC(=O)NCc2c(-c3ccccc3)c3cc(Cl)ccc3c(=O)n2C)c1 [39 (HCl), N-[(6-Chloro-1,2-dihydro-2-methyl-1-oxo-4-phenylisoquinolin-3-yl)methyl]-N'-[3-(diethylaminomethyl)phenyl]urea]	63%	–
Cn1c(CNC(=O)Nc2cccc(CN3CCCC3)c2)c(-c2ccccc2)c2cc(Cl)ccc2c1=O [40 (HCl), N-[(6-Chloro-1,2-dihydro-2-methyl-1-oxo-4-phenylisoquinolin-3-yl)methyl]-N'-[3-(1-pyrrolidinomethyl)phenyl]urea]	75%	–
CCN(CC)CCc1cccc(NC(=O)NCc2c(-c3ccccc3)c3cc(Cl)ccc3c(=O)n2C)c1 [41 (HCl), N-[(6-Chloro-1,2-dihydro-2-methyl-1-oxo-4-phenylisoquinolin-3-yl)methyl]-N'-{3-[2-(diethylamino)ethyl]phenyl}urea]	88%	responders at 0.3 mg/kg [1, 4]: 75%
CN(C)Cc1ccc(NC(=O)NCc2c(-c3ccccc3)c3cc(Cl)ccc3c(=O)n2C)cc1 [43 (HCl), N-[(6-Chloro-1,2-dihydro-2-methyl-1-oxo-4-phenylisoquinolin-3-yl)methyl]-N'-[4-(dimethylaminomethyl)phenyl]urea]	63%	–
CN(C)CCCc1cccc(NC(=O)NCc2c(-c3ccccc3)c3cc(Cl)ccc3c(=O)n2C)c1 [44 (HCl), N-[(6-Chloro-1,2-dihydro-2-methyl-1-oxo-4-phenylisoquinolin-3-yl)methyl]-N'-{3-[3-(dimethylamino)propyl]phenyl}urea]	63%	–
CN(C)CCOc1cccc(NC(=O)NCc2c(-c3ccccc3)c3cc(Cl)ccc3c(=O)n2C)c1 [45 (HCl), N-[(6-Chloro-1,2-dihydro-2-methyl-1-oxo-4-phenylisoquinolin-3-yl)methyl]-N'-{3-[2-(dimethylamino)ethoxy]phenyl}urea]	82%	–
Cn1c(CNC(=O)NCCCn2ccnc2)c(-c2ccccc2)c2cc(Cl)ccc2c1=O [47 (HCl), N-[(6-Chloro-1,2-dihydro-2-methyl-1-oxo-4-phenylisoquinolin-3-yl)methyl]-N'-[3-(1-imidazolyl)propyl]urea]	75%	–
CNCc1cccc(NC(=O)NCc2c(-c3ccccc3)c3cc(Cl)ccc3c(=O)n2C)c1 [48 (HCl), N-[(6-Chloro-1,2-dihydro-2-methyl-1-oxo-4-phenylisoquinolin-3-yl)methyl]-N'-[3-(methylamino)methylphenyl]urea hydrochloride]	88%	–
CCNCc1cccc(NC(=O)NCc2c(-c3ccccc3)c3cc(Cl)ccc3c(=O)n2C)c1 [49 (HCl), N-[(6-Chloro-1,2-dihydro-2-methyl-1-oxo-4-phenylisoquinolin-3-yl)methyl]-N'-[3-(ethylaminomethyl)phenyl]urea hydrochloride]	88%	–
Cn1c(CNC(=O)Nc2ccc3c(c2)CCC3N)c(-c2ccccc2)c2cc(Cl)ccc2c1=O (stereo not drawn) [50 (HCl), N-(1-Aminoindan-5-yl)-N'-[(6-chloro-1,2-dihydro-2-methyl-1-oxo-4-phenylisoquinolin-3-yl)methyl]urea hydrochloride]	75%	–
Cn1c(CNC(=O)Nc2cccc(CN)c2)c(-c2ccccc2)c2cc(Cl)ccc2c1=O [51 (HCl), N-[3-(Aminomethyl)phenyl]-N'-[(6-chloro-1,2-dihydro-2-methyl-1-oxo-4-phenylisoquinolin-3-yl)methyl]urea hydrochloride]	100%	–
CN(C)Cc1cccc(NC(=O)NCc2c(-c3ccc(F)cc3)c3ccccc3c(=O)n2C)c1 [53 (HCl), N-{[4-(4-Fluorophenyl)-1,2-dihydro-2-methyl-1-oxoisoquinolin-3-yl]methyl}-N'-[3-(dimethylaminomethyl)phenyl]urea hydrochloride]	75%	–
CC(C)Oc1cccc(NC(=O)NCc2c(-c3ccccc3)c3ccccc3c(=O)n2C)c1 [Example 16, N-[(1,2-Dihydro-2-methyl-1-oxo-4-phenylisoquinolin-3yl)methyl]-N'-(3-isopropoxyphenyl)urea]	88%	–
CC(C)Oc1cccc(N(C)C(=O)N(C)Cc2c(-c3ccccc3)c3cc(Cl)ccc3c(=O)n2C)c1 [Example 24, N-[(6-Chloro-1,2-dihydro-2-methyl-1-oxo-4-phenylisoquinolin-3-yl)methyl]-N'-(3-isopropoxyphenyl)-N,N'-dimethylurea]	75%	–
CC(C)Oc1cccc(CC(=O)NCc2c(-c3ccccc3)c3cc(Cl)ccc3c(=O)n2C)c1 [Example 27, N-(6-Chloro-1,2-dihydro-2-methyl-1-oxo-4-phenylisoquinolin-3-yl)methyl-α-(3-isopropoxyphenyl)acetamide]	88%	–
CC(C)Oc1cccc(OC(=O)NCc2c(-c3ccccc3)c3cc(Cl)ccc3c(=O)n2C)c1 [Example 29, 3-Isopropoxyphenyl N-[(6-chloro-1,2-dihydro-2-methyl-1-oxo-4-phenylisoquinolin-3-yl)methyl]carbamate]	–	responders at 5 mg/kg ([1]; 8 h): 75%
CC(C)Oc1cccc(CC(=O)OCc2c(-c3ccccc3)c3cc(Cl)ccc3c(=O)n2C)c1 [Example 32, (6-Chloro-1,2-dihydro-2-methyl-1-oxo-4-phenylisoquinolin-3-yl)methyl α-(3-isopropoxyphenyl)acetate]	63%	–
